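Grown in 96-well plates, cells were treated for 48 hours with each compound at five concentrations. Insufficient inhibition: endpoint recorded as highest concentration tested. Here, GI50 denotes the concentration required for 50% inhibition of growth.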 Active and inactive are the calls of the source. Cut-off read from the data, not from the text of the source: active = GI50 up to about 1.1 µM and inactive = higher.
Assays:
Assay in all cases: NCI anticancer screen, dose series, 48 h
[1] = tested on: 786-0
[2] = tested on: A549
[3] = tested on: ACHN
[4] = tested on: CCRF-CEM
[5] = tested on: COLO 205
[6] = tested on: DLD-1
[7] = tested on: EKVX
[8] = tested on: HCC 2998
[9] = tested on: HCT-116
[10] = tested on: HCT-15
[11] = tested on: HL-60
[12] = tested on: HOP-18
[13] = tested on: HOP-62
[14] = tested on: HOP-92
[15] = tested on: HT-29
[16] = tested on: IGROV-1
[17] = tested on: K562
[18] = tested on: KM-20L2
[19] = tested on: KM12
[20] = tested on: LOX IMVI
[21] = tested on: LXFL 529
[22] = tested on: M14
[23] = tested on: M19-MEL
[24] = tested on: MOLT-4
[25] = tested on: Malme-3M
[26] = tested on: NCI-H226
[27] = tested on: NCI-H23
[28] = tested on: NCI-H460
[29] = tested on: NCI-H522
[30] = tested on: OVCAR-3
[31] = tested on: OVCAR-5
[32] = tested on: OVCAR-8
[33] = tested on: RPMI-8226
[34] = tested on: RXF 393
[35] = tested on: RXF 631
[36] = tested on: SF-268
[37] = tested on: SF-295
[38] = tested on: SF-539
[39] = tested on: SK-MEL-28
[40] = tested on: SK-MEL-5
[41] = tested on: SK-OV-3
[42] = tested on: SN12C
[43] = tested on: SNB-19
[44] = tested on: SNB-75
[45] = tested on: SR
[46] = tested on: SW-620
[47] = tested on: TK-10
[48] = tested on: U-251
[49] = tested on: UACC-257
[50] = tested on: UACC-62
[51] = tested on: UO-31
[52] = tested on: XF498
[53] = tested on: A498
[54] = tested on: BT-549
[55] = tested on: CAKI-1
[56] = tested on: DMS-114
[57] = tested on: DMS-273
[58] = tested on: DU-145
[59] = tested on: Hs-578T
[60] = tested on: MCF7
[61] = tested on: MDA-MB-231
[62] = tested on: MDA-MB-435
[63] = tested on: NCI/ADR-RES
[64] = tested on: OVCAR-4
[65] = tested on: PC-3
[66] = tested on: SK-MEL-2
[67] = tested on: SNB-78
[68] = tested on: T47D

## COc1ccc(C2NCCc3c2[nH]c2ccccc32)cc1 (centres undefined)
[1]
  GI50: 83.8 µM (inactive)
[2]
  GI50: 48.2 µM (inactive)
[3]
  GI50: > 100 µM (inactive)
[4]
  GI50: 77.6 µM (inactive)
[5]
  GI50: 32.2 µM (inactive)
[6]
  GI50: > 100 µM (inactive)
[7]
  GI50: > 100 µM (inactive)
[8]
  GI50: 24.7 µM (inactive)
[9]
  GI50: 51.5 µM (inactive)
[10]
  GI50: > 100000 nM
[11]
  GI50: > 100 µM (inactive)
[12]
  GI50: 58.7 µM (inactive)
[13]
  GI50: 21.2 µM (inactive)
[14]
  GI50: > 100 µM (inactive)
[15]
  GI50: > 100 µM (inactive)
[16]
  GI50: > 100 µM (inactive)
[17]
  GI50: 60.8 µM (inactive)
[18]
  GI50: > 100 µM (inactive)
[19]
  GI50: > 100 µM (inactive)
[20]
  GI50: > 100 µM (inactive)
[21]
  GI50: 95.3 µM (inactive)
[22]
  GI50: 23.2 µM (inactive)
[23]
  GI50: > 100 µM (inactive)
[24]
  GI50: > 100 µM (inactive)
[25]
  GI50: 27 µM (inactive)
[26]
  GI50: > 100 µM (inactive)
[27]
  GI50: > 100 µM (inactive)
[28]
  GI50: 88.9 µM (inactive)
[29]
  GI50: > 100 µM (inactive)
[30]
  GI50: > 100 µM (inactive)
[31]
  GI50: > 100 µM (inactive)
[32]
  GI50: > 100 µM (inactive)
[33]
  GI50: > 100 µM (inactive)
[34]
  GI50: 67.1 µM (inactive)
[35]
  GI50: 67 µM (inactive)
[36]
  GI50: > 100 µM (inactive)
[37]
  GI50: > 100 µM (inactive)
[38]
  GI50: > 100 µM (inactive)
[39]
  GI50: 5.22 µM (inactive)
[40]
  GI50: 22.5 µM (inactive)
[41]
  GI50: > 100 µM (inactive)
[42]
  GI50: > 100 µM (inactive)
[43]
  GI50: > 100 µM (inactive)
[44]
  GI50: 30.5 µM (inactive)
[45]
  GI50: 28.2 µM (inactive)
[46]
  GI50: > 100 µM (inactive)
[47]
  GI50: > 100 µM (inactive)
[48]
  GI50: > 100 µM (inactive)
[49]
  GI50: 45.6 µM (inactive)
[50]
  GI50: > 100 µM (inactive)
[51]
  GI50: 42.3 µM (inactive)
[52]
  GI50: 28.1 µM (inactive)

## c1ccc2c(NCCCCCCCCNc3c4ccccc4nc4ccccc34)c3ccccc3nc2c1
[1]
  GI50: 0.106 µM (active)
[53]
  GI50: 1.26 µM (inactive)
[2]
  GI50: 0.0948 µM (active)
[3]
  GI50: 0.0703 µM (active)
[54]
  GI50: 1.16 µM (inactive)
[55]
  GI50: 546 nM (active)
[4]
  GI50: < 0.0278 µM (active)
[5]
  GI50: 0.113 µM (active)
[6]
  GI50: 0.143 µM (active)
[56]
  GI50: 1.01 µM (active)
[57]
  GI50: 43 nM (active)
[58]
  GI50: 83.8 nM (active)
[7]
  GI50: 0.323 µM (active)
[8]
  GI50: 0.0723 µM (active)
[9]
  GI50: 0.0392 µM (active)
[10]
  GI50: 528 nM
[11]
  GI50: 0.125 µM (active)
[12]
  GI50: 1.76 µM (inactive)
[13]
  GI50: 0.224 µM (active)
[14]
  GI50: 1.48 µM (inactive)
[15]
  GI50: < 0.0281 µM (active)
[59]
  GI50: 478 nM (active)
[16]
  GI50: 0.0927 µM (active)
[17]
  GI50: 0.0469 µM (active)
[18]
  GI50: 0.354 µM (active)
[19]
  GI50: 0.187 µM (active)
[20]
  GI50: 0.181 µM (active)
[21]
  GI50: 0.213 µM (active)
[22]
  GI50: 0.975 µM (active)
[23]
  GI50: 1.08 µM (active)
[60]
  GI50: 57.8 nM (active)
[61]
  GI50: 48.2 nM (active)
[62]
  GI50: 1.04 µM (active)
[24]
  GI50: 0.0419 µM (active)
[25]
  GI50: 1.14 µM (inactive)
[26]
  GI50: 1.35 µM (inactive)
[27]
  GI50: 0.257 µM (active)
[28]
  GI50: 0.0428 µM (active)
[29]
  GI50: < 0.0247 µM (active)
[63]
  GI50: 4.15 µM (inactive)
[30]
  GI50: 0.37 µM (active)
[64]
  GI50: 887 nM (active)
[31]
  GI50: 0.23 µM (active)
[32]
  GI50: 0.27 µM (active)
[65]
  GI50: 54.8 nM (active)
[33]
  GI50: 0.0828 µM (active)
[34]
  GI50: 0.0782 µM (active)
[35]
  GI50: 0.178 µM (active)
[36]
  GI50: 0.63 µM (active)
[37]
  GI50: 0.693 µM (active)
[38]
  GI50: 0.233 µM (active)
[66]
  GI50: 733 nM (active)
[40]
  GI50: 1.39 µM (inactive)
[41]
  GI50: 0.553 µM (active)
[42]
  GI50: 0.356 µM (active)
[43]
  GI50: 0.332 µM (active)
[44]
  GI50: 1.19 µM (inactive)
[67]
  GI50: 1.01 µM (active)
[45]
  GI50: 0.024 µM (active)
[46]
  GI50: 0.0506 µM (active)
[68]
  GI50: 590 nM (active)
[47]
  GI50: 1.38 µM (inactive)
[48]
  GI50: 0.184 µM (active)
[49]
  GI50: 1.37 µM (inactive)
[50]
  GI50: 0.684 µM (active)
[51]
  GI50: 1.35 µM (inactive)
[52]
  GI50: 1.04 µM (active)

From ChEMBL document CHEMBL1201862, “PubChem BioAssay data set” (2004)
